Source: PMC3880798 (Clinical cancer research : an official journal of the …, 2013)
Values joined by “and” are separate entries in the source; they are usually repeats but may differ in a detail not shown here. Equal values may be shown once.

Experiments:
[1] = Plasma pharmacokinetics of OSI-930; assay type: in vivo, human; settings: for AUC / Cmax / concentration at 22 day / half-life / Tmax: human, plasma
[2] = tested on: advanced solid tumors; assay: Antitumor response; assay type: in vivo, human
[3] = 19 evaluable patients with GIST

## O=C(Nc1ccc(OC(F)(F)F)cc1)c1sccc1NCc1ccnc2ccccc12 [OSI-930]
[1]; 400 mg twice a day cohort, 3 vs 4 patients, data not shown
  Rate and extent of absorption, sieved (screened) vs micronized capsules: similar
[1]; 400 and 500 mg twice a day
  Dose proportionality of exposure: dose proportional
[1]; between 500 and 600 mg twice a day
  Dose proportionality of exposure: greater than dose proportional
[1]; oral, 50 mg, AUCtau, 50 mg once a day (n = 1), day 22, steady state
  AUC: 2590 ng·h/mL
[1]; oral, 50 mg, Cmax, 50 mg once a day (n = 1), day 22, steady state
  Cmax: 188 ng/mL
[1]; oral, 50 mg, Cmin, 50 mg once a day (n = 1), day 22, steady state
  concentration at 22 day: 69.3 ng/mL
[1]; oral, 50 mg, T1/2, 50 mg once a day (n = 1), day 22, steady state
  half-life: 12.6 h
[1]; oral, 50 mg, Tmax, 50 mg once a day (n = 1), day 22, steady state
  Tmax: 6 h
[1]; oral, 100 mg, AUCtau, 100 mg once a day (n = 1), day 22, steady state
  AUC: 2490 ng·h/mL
[1]; oral, 100 mg, Cmax, 100 mg once a day (n = 1), day 22, steady state
  Cmax: 228 ng/mL
[1]; oral, 100 mg, Cmin, 100 mg once a day (n = 1), day 22, steady state
  concentration at 22 day: 61.5 ng/mL
[1]; oral, 100 mg, T1/2, 100 mg once a day (n = 1), day 22, steady state
  half-life: 18.5 h
[1]; oral, 100 mg, Tmax, 100 mg once a day (n = 1), day 22, steady state
  Tmax: 4 h
[1]; oral, 200 mg, AUCtau, 200 mg once a day (n = 1), day 22, steady state
  AUC: 4730 ng·h/mL
[1]; oral, 200 mg, Cmax, 200 mg once a day (n = 1), day 22, steady state
  Cmax: 463 ng/mL
[1]; oral, 200 mg, Cmin, 200 mg once a day (n = 1), day 22, steady state
  concentration at 22 day: 77.9 ng/mL
[1]; oral, 200 mg, T1/2, 200 mg once a day (n = 1), day 22, steady state
  half-life: 7.95 h
[1]; oral, 200 mg, Tmax, 200 mg once a day (n = 1), day 22, steady state
  Tmax: 6 h
[1]; oral, 400 mg, AUCtau, 400 mg once a day (n = 2), day 22, steady state
  AUC: 10700 ng·h/mL
[1]; oral, 400 mg, AUCtau, 400 mg twice a day (n = 6), day 22, steady state
  AUC: 7880 ng·h/mL
[1]; oral, 400 mg, Cmax, 400 mg once a day (n = 2), day 22, steady state
  Cmax: 873 ng/mL
[1]; oral, 400 mg, Cmax, 400 mg twice a day (n = 6), day 22, steady state
  Cmax: 802 ng/mL
[1]; oral, 400 mg, Cmin, 400 mg once a day (n = 2), day 22, steady state
  concentration at 22 day: 306 ng/mL
[1]; oral, 400 mg, Cmin, 400 mg twice a day (n = 6), day 22, steady state
  concentration at 22 day: 423 ng/mL
[1]; oral, 400 mg, T1/2, 400 mg once a day (n = 2), day 22, steady state
  half-life: 13.8 h
[1]; oral, 400 mg, T1/2, 400 mg twice a day (n = 6), day 22, steady state
  half-life: 4.07 h
[1]; oral, 400 mg, Tmax, 400 mg once a day (n = 2), day 22, steady state
  Tmax: 4 h
[1]; oral, 400 mg, Tmax, 400 mg twice a day (n = 6), day 22, steady state
  Tmax: 6.1 h
[1]; oral, 500 mg, AUCtau, 500 mg twice a day (n = 21), day 22, steady state
  AUC: 5760 ng·h/mL
[1]; oral, 500 mg, Cmax, 500 mg twice a day (n = 21), day 22, steady state
  Cmax: 1010 ng/mL
[1]; oral, 500 mg, Cmin, 500 mg twice a day (n = 21), day 22, steady state
  concentration at 22 day: 547 ng/mL
[1]; oral, 500 mg, T1/2, 500 mg twice a day (n = 21), day 22, steady state
  half-life: 7.11 h
[1]; oral, 500 mg, Tmax, 500 mg twice a day (n = 21), day 22, steady state
  Tmax: 3.6 h
[1]; oral, 600 mg, AUCtau, 600 mg twice a day (n = 6), day 22, steady state
  AUC: 11900 ng·h/mL
[1]; oral, 600 mg, Cmax, 600 mg twice a day (n = 6), day 22, steady state
  Cmax: 2030 ng/mL
[1]; oral, 600 mg, Cmin, 600 mg twice a day (n = 6), day 22, steady state
  concentration at 22 day: 1170 ng/mL
[1]; oral, 600 mg, T1/2, 600 mg twice a day (n = 6), day 22, steady state
  half-life: 5.39 h
[1]; oral, 600 mg, Tmax, 600 mg twice a day (n = 6), day 22, steady state
  Tmax: 3.5 h
[1]; oral, 800 mg, AUCtau, 800 mg once a day (n = 2), day 22, steady state
  AUC: 11300 ng·h/mL
[1]; oral, 800 mg, Cmax, 800 mg once a day (n = 2), day 22, steady state
  Cmax: 984 ng/mL
[1]; oral, 800 mg, Cmin, 800 mg once a day (n = 2), day 22, steady state
  concentration at 22 day: 304 ng/mL
[1]; oral, 800 mg, T1/2, 800 mg once a day (n = 2), day 22, steady state
  half-life: 18.1 h
[1]; oral, 800 mg, Tmax, 800 mg once a day (n = 2), day 22, steady state
  Tmax: 4.1 h
[1]; oral, 1200 mg, AUCtau, 1,200 mg once a day (n = 1), day 22, steady state
  AUC: 19600 ng·h/mL
[1]; oral, 1200 mg, Cmax, 1,200 mg once a day (n = 1), day 22, steady state
  Cmax: 1990 ng/mL
[1]; oral, 1200 mg, Cmin, 1,200 mg once a day (n = 1), day 22, steady state
  concentration at 22 day: 493 ng/mL
[1]; oral, 1200 mg, T1/2, 1,200 mg once a day (n = 1), day 22, steady state
  half-life: 20.2 h
[1]; oral, 1200 mg, Tmax, 1,200 mg once a day (n = 1), day 22, steady state
  Tmax: 4 h
[1]; oral, 1600 mg, AUCtau, 1,600 mg once a day (n = 3), day 22, steady state
  AUC: 13000 ng·h/mL
[1]; oral, 1600 mg, Cmax, 1,600 mg once a day (n = 3), day 22, steady state
  Cmax: 1070 ng/mL
[1]; oral, 1600 mg, Cmin, 1,600 mg once a day (n = 3), day 22, steady state
  concentration at 22 day: 249 ng/mL
[1]; oral, 1600 mg, T1/2, 1,600 mg once a day (n = 3), day 22, steady state
  half-life: 12.6 h
[1]; oral, 1600 mg, Tmax, 1,600 mg once a day (n = 3), day 22, steady state
  Tmax: 6 h
[1]; oral, Terminal half-life, twice a day cohort
  half-life: 2.3 to 7.1 h
[1]; po, Time to peak plasma concentrations, once a day and twice a day cohorts
  Tmax: 2 to 10 h
[1]; once a day cohorts
  Linearity of Cmax and AUC: linearity in Cmax and AUC in the dose range 50 to 1,200 mg, but not at 1,600 mg
[1]; twice a day oral administration
  Accumulation in plasma at steady state: ~2 fold
[1]; twice a day oral administration, predose concentrations days 8, 15, 22
  Steady state plasma concentrations achieved: ≤ 8 days
[2]; 1 patient, anthracycline-resistant low-grade sarcoma, once a day
  Duration of disease stabilization: 139 weeks
[2]; 1 patient, low-grade sarcoma, escalated from 100 to 1,200 mg once a day
  Duration of RECIST stabilization of disease: 33 months
[2]; [3]
  Patients with stable disease as best response: 57.9% and 58%
  RECIST PRs: no RECIST PRs
[2]; once a day cohorts
  RECIST partial or complete responses: No RECIST partial or complete responses
